Point of comparison: `O=C(Nc1ccc(C2CC(F)(F)C2(F)F)cc1)Nc1nonc1-c1ccccc1` (configuration not stated), melting point 206 °C. Against it:
- CC(=O)NCCC1(C[N+](=O)[O-])CCCCC1 — lower, 68 to 70 °C
- CN(C(=O)[C@H]1C[C@H](C(=O)O)[C@@H](c2ccccc2F)N1C(=O)CNC(=O)Nc1cccc(CC(=O)O)c1)c1ccccc1 (racemic) — lower, 164 °C
- Cc1cccc([N+](=O)[O-])c1Br — lower, 36 to 41 °C
- O=C(O)C1(C(F)(F)F)NNC2=C1CCCC2 (configuration not stated) — lower, 183 to 184 °C
- O=C(C(=O)c1ccc(F)cc1Br)c1ccccc1 — lower, 62 to 66 °C
- CS(=O)(=O)CCOS(C)(=O)=O — lower, 55 to 57 °C
- COC(=O)c1sc2nc(C(C)C)ccc2c1O — lower, 80 to 81 °C
- Oc1ccc(Cl)cc1I — lower, 79 to 82 °C
- CN1C(=O)[C@H](NC(=O)/C=C/c2ccccc2Cl)N=C(c2ccccc2)c2ccccc21 — lower, 128 to 131 °C
- CCCn1cc(CN(C(=O)C2CCCc3c(O)cccc32)c2ccc(C(C)C)cc2)cn1 (configuration not stated) — lower, 161 °C
- CC(C)(C)c1cc(C(=O)C(=O)O)cc(C(C)(C)C)c1O — lower, 125 to 126 °C
- C=CCc1c(C)nc2c(OCc3ccccc3)cccn12 — lower, 90.5 to 91.5 °C
- CNC(=O)[C@@H](N)C(C)(C)C — lower, 90 to 93 °C
- CNC(=O)N1CCC(CN2CCC(NC(=O)c3cc(Cl)c(N)cc3OC)CC2)CC1 — lower, 202 to 204 °C
- Cc1onc2c1C(=O)N(C(C)(C)C)C2=O — lower, 48 to 50 °C
- CCCCn1c(=O)c(NC(=O)Nc2cc(Cc3ncc[nH]3)ccc2C(C)(C)C)c(-c2cccc(O)c2)c2cccnc21 — lower, 160 to 162 °C
- COC(=O)c1ccc(F)c([N+](=O)[O-])c1 — lower, 58.5 to 59.5 °C
- C=CC(=O)c1ccc(O)c(Cl)c1Cl — lower, 135 to 137 °C
- COC(=O)c1ccc(-c2nc3cc([N+](=O)[O-])c([N+](=O)[O-])cc3[nH]2)cc1 — higher, 239 to 240 °C
- COc1ccc(S(=O)(=O)N2CCc3cccc(-c4ccc(C#N)cc4)c32)cc1 — lower, 157 to 159 °C
- OC12CC3CC(C1)C(NC(c1ccccc1)(c1ccccc1)c1ccccc1)C(C3)C2 (configuration not stated) — lower, 166 to 170 °C
- O=C(CCl)COc1c(Cl)cc(Cl)cc1Cl — lower, 55 °C
- COC(=NS(=O)(=O)c1nc(-c2ccccc2Cl)ns1)C(C)C — lower, 75 to 76 °C
- NS(=O)(=O)c1cc2c(s1)S(=O)(=O)CC(Br)C2O (configuration not stated) — higher, 217 to 219 °C
- CCOC(=O)C=Cc1ccc(OCCCc2ccccc2)c([N+](=O)[O-])c1 — lower, 67 to 69 °C
- CCCCC[C@H](O)/C=C/[C@@H]1[C@H]2Cc3cccc(OC(C)=O)c3C[C@H]2C[C@H]1O — lower, 54 to 65 °C
- CCN1CCN(c2ccc(C(=O)OC)cc2)CC1 — lower, 102 to 104 °C
- CCOC(=O)c1cccc(CCC(CO)n2cnc(C(N)=O)c2)c1 (configuration not stated) — lower, 92 to 95 °C
- Fc1cccc2c1OC(CN1CC=C(c3c[nH]c4ccccc34)CC1)CO2 (configuration not stated) — lower, 174 to 177 °C
- COc1ccc(-n2cnc3ccc(-c4nnc(SCc5cccc(C(F)(F)F)c5)o4)cc32)cc1 — lower, 174 to 175 °C
- COc1ccc2cc(C3CCN(C[C@H](O)COc4cccc5sc(-c6ncc(C)o6)cc45)CC3)ccc2c1 — lower, 163 to 166 °C
- CCCc1cc(-c2noc3cc(O)ccc23)c(CCC)cc1O — lower, 162 to 163 °C
- Fc1ccc(-c2c[nH]c(C3CCN(CC4CCCCC4)CC3)n2)cc1 — higher, 220 to 222 °C
- CS(=O)c1ccc(-c2nc3n(c2-c2ccncc2)CCC3)cc1 (configuration not stated) — lower, 164 to 166 °C
- FC(F)(F)c1ccc(-c2cc(C(F)(F)F)n3nccc3n2)cc1 — lower, 110 to 111 °C
- Fc1ccc(-c2[nH]nc(C3=CC4CCCN4CC3)c2-c2ccncc2)cc1 (configuration not stated) — not separable, 204 to 208 °C
- Cc1nc(-c2ccc(C(F)(F)F)cc2)sc1CN(C)c1ccc(OCC(=O)O)c(C(F)(F)F)c1 — lower, 180 to 181 °C
- CCCn1nc(OCc2ccc3ccccc3n2)cc1C(=O)OC — lower, 71 to 72 °C
- CC1(C)CCc2c(-c3ccoc3)nc3sc4c(NCCCN5CCCC5=O)ncnc4c3c2C1 — lower, 194 to 195 °C
- CCOC(=O)c1cncc(OC)c1CCCOc1cccnc1Oc1cccc(Cl)c1 — lower, 82 to 83 °C
- Cc1oc2ccc(S(=O)(=O)C[N+](=O)[O-])cc2c(=O)c1C — not separable, 206 to 209 °C
- Cc1ccc(-c2nc3ccc(Cl)nc3n2CC(=O)N(C)C)cc1 — lower, 182 to 185 °C
- CS(=O)(=O)c1ccc(-c2cnn(CC(F)(F)F)c(=O)c2Nc2ccccc2)cc1 — lower, 154 to 156 °C
- Cc1cc(COc2ccc(Cl)cc2CN)on1 — lower, 32 to 35 °C
- Cc1ccc(-c2ccccc2-c2n[nH]c(=O)o2)cc1 — lower, 123 to 125 °C
- O=C(O)c1ccc(CN(Cc2ccc(C(F)(F)P(=O)(O)O)c(Br)c2)S(=O)(=O)c2ccccc2)cc1 — lower, 160 to 162 °C
- Nc1cc(F)ccc1[N+](=O)[O-] — lower, 99 °C
- Cc1oc(-c2ccccc2)nc1CCOc1ccc(CON=C(CCC(=O)O)c2ccccc2)cc1 — lower, 106 to 107 °C
- CC(=O)OCC1OC(n2cnc(C(N)=O)c2Br)C(OC(C)=O)C1OC(C)=O (configuration not stated) — lower, 133 to 135 °C
- O=C(O)COc1cccc2c1CCC(Cn1nc(C(c3ccccc3)c3ccccc3)ccc1=O)C2 (configuration not stated) — lower, 144 to 145 °C
- CN(C)C(=O)CCC(=O)NC1CCC(CCN2CCC(c3cccc4c3CCO4)CC2)CC1 (configuration not stated) — lower, 205 °C
- O=c1c2ccc(-c3nnn[nH]3)cc2oc2ccc(OCCCO)cc12 — higher, 270 °C
- Cc1ccc(C#Cc2cc3ccccc3s2)s1 — lower, 85 to 87 °C
- Cc1c(F)cc2c(=O)c(C(=O)O)cn(CCF)c2c1F — higher, 215 to 217 °C
- O=C1CCC(N2C(=O)c3cccc(OCc4ccc(CN5CCC(c6ccc(Cl)cc6)CC5)cc4)c3C2=O)C(=O)N1 (configuration not stated) — higher, 236 to 238 °C
- O=C1CCCc2c(O)cccc2N1 — higher, 244 to 245 °C
- O=[N+]([O-])c1cc(Cl)cnc1Oc1ccc(O)cc1 — lower, 125 to 126 °C
- Cc1cnn(-c2cc(F)c(C#N)cc2F)c(=O)c1 — higher, 223 °C
- COc1cc2c(cc1O)CCC1C3=CCC(O)C3(C)CCC21 (configuration not stated) — lower, 169 to 171 °C
- N#Cc1ccc(N(Cc2ccc(OS(N)(=O)=O)cc2)n2cnnc2)cc1-c1cc2ccccc2o1 — lower, 202 to 203 °C
- CCOC(=O)N1CCN(C(=O)Oc2ccc([N+](=O)[O-])cc2)CC1 — lower, 125 to 128 °C
- C1CCC(N2CCCC2)C2NCCCC2C1 (configuration not stated) — lower, 30 to 35 °C
- COC1CCC(OC)C2=C1C=CC(=O)C2 (configuration not stated) — lower, 99 to 100 °C
- COC(=O)c1sc(Cl)c(Cl)c1NC(C)=O — lower, 136 to 138 °C
- COc1ccc(C(=O)Nc2c(Cl)cncc2Cl)c2c1oc1ccc(NC(=O)C(F)(F)F)cc12 — higher, > 300 °C
- CCN(CC)CCNC(=O)c1cccc2c(=O)c3cccc(I)c3[nH]c12 — lower, 148 to 150 °C
- Cc1ccccc1Oc1cccc(C(N)C(=O)O)c1O (configuration not stated) — lower, 170 to 173 °C
- CCCCCCCCCCCCCCCCNc1ccc(C(=O)OCCCO)cc1 — lower, 67 to 69 °C
- CNc1cc(Nc2ccc(OC)cc2)ncn1 — lower, 174 to 182 °C
- CC1CCC(C(C)C)C(OC(=O)/C=C\C(=O)c2ccccc2)C1 (configuration not stated) — lower, 85 to 87 °C
- CC(=O)NCc1coc2cc(NS(C)(=O)=O)c(Oc3ccccc3)cc2c1=O — higher, 240 to 242 °C
- CCN1CN(C2CC(O)C(CO)O2)C(=O)NC1=O (configuration not stated) — lower, 162 °C
- O=C(Nc1ccc(N2CCSC2)c(F)c1)OCc1ccccc1 — lower, 90 to 92 °C
- Cc1cc(O)c(CC(=O)OCCC(C)C)cc1O — lower, 99 °C
- O=S(=O)(c1ccc(Br)cc1)n1ccc2ccccc21 — lower, 106 °C
- CON=C(C(C)=NN=Cc1ccccc1-n1c(OC)nn(C)c1=O)c1cccc(C(F)(F)F)c1 — lower, 157 to 161 °C
- N#CCc1cccc(Cc2ccccc2)c1 — lower, 136 to 137 °C
- CCc1nnc(-c2ccc3occ(-c4ccc(SC)cc4)c3c2)o1 — lower, 164 to 165 °C
- Oc1ccc(C(=C2CCNCC2)c2ccccc2)cc1 — higher, > 260 °C
- Nc1cc(C(=O)O)ccc1-c1nc(-c2ccc(C(F)(F)F)cc2)no1 — higher, > 300 °C
- CCOC(=O)C(Cc1ccc(N)s1)NC(=O)OC(C)(C)C (racemic) — lower, 132 °C
- COC(=O)c1ccc(O)cn1 — lower, 188 to 190 °C
- O=C(Nc1ccc(Cl)cn1)c1ccc(OC(F)F)c2oc3ccccc3c12 — lower, 155 to 157 °C
- Cc1cn(-c2cc(C=O)c(N)c(C(F)(F)F)c2)c(C)n1 — lower, 200 to 202 °C
- CCCN1CC(c2ccc(S(C)(=O)=O)cc2)=C(c2ccc(Cl)cc2)C1=O — lower, 146 to 148 °C
- COc1cc(NS(C)(=O)=O)ccc1C1=NC2=CCC(=O)NC2=N1 — higher, > 255 °C
- C[Si](C)(C)C#Cc1c2ccccc2c2ccc3c(C#C[Si](C)(C)C)c4ccccc4c4ccc1c2c34 — higher, 286 to 288 °C
- CN(C)c1ccc(-c2cc(C(F)(F)F)c3c(-c4ccccc4)n[nH]c3n2)cc1 — higher, 227 °C
- N#Cc1c(N2CCN(Cc3ccccc3)CC2)nn2c(-c3ccncc3)ccnc12 — lower, 193 to 194 °C
- CCCCc1nc2ccccn2c(=O)c1-c1ccc(N)cc1 — lower, 95 to 97 °C
- COC(=O)C1CCC2C3CCC4CC(OC(C)=O)CCC4(C)C3C(NC3CCCCC3)CC12C (configuration not stated) — lower, 126 to 128 °C
- CC(=O)N1CCC(C)(C)C(=O)c2ccc(Cl)cc2CCC1=O — lower, 113 to 115 °C
- CNC(=O)c1ccc(C(F)(F)F)c(N)c1 — lower, 114 to 115 °C
- CCCc1c(CSc2nnc(S)s2)ccc(C(C)=O)c1O — lower, 133 to 135 °C
- Nc1ncc(-c2cccc(Cl)c2Cl)c(N)n1 — higher, 208 to 211 °C
- Cc1cc(N)nc(CCc2nc3cc(-c4ccc(S(=O)(=O)N5CCC5)cc4)cnc3[nH]2)c1 — lower, 168 °C
- CCCCCC(O)c1cccc(OCc2cccc(CC(=O)O)c2)c1 (configuration not stated) — lower, 111 to 113 °C
- Cc1ccccc1CN1CCN(C(=O)c2ccc(N(CCOC(C)C)C(=O)CCl)cc2)CC1 — lower, 142 to 143 °C
- CN(C)CCCOc1ccc(-c2ccc3nnn(Cc4ccc5ncccc5c4)c3n2)cc1F — lower, 102 to 105 °C
- OC[C@H]1C[C@@H](n2cnc3c(N[C@H]4CCN(c5ccc(C(F)(F)F)cc5)C4)ncnc32)[C@H](O)[C@@H]1O — lower, 111 to 114 °C
- Nc1ncnc2c1ncn2Cc1nc2ccc(Br)cc2c(=O)n1-c1ccccc1Cl — higher, 284 to 285 °C

Reference: a melting point compilation (Tetko et al.; mined from patent text by program, amines drawn as free bases though some values may be those of a salt)
